Results published in US20100292231A1, “Indazole Compounds for Treating Inflammatory Disorders, Demyelinating Disorders and Cancers” (priority 2007, published 2010).
Like-named read-outs stand apart in the source and are kept apart here.

Columns and labels:
Experiment in all cases: SelectScreen kinase specificity survey
Format in all cases: biochemical
[1] = molecular target: T1, BLK (Homo sapiens, UniProt P51451); settings: estimated, abridged dose response curve, read-out: Kinase inhibitory activity EC50
T1 construct: purchased Invitrogen (SelectScreen)
Method in brief: (§1)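 Kinases from all classes (230 in total) are treated with a unique substrate and optical read-out system in the presence of 100 micromolar ATP. Uninhibited controls give the baseline phosphorylation signal, and graded compound in 5 steps yields the curve for Hill fitting.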

[2] = molecular target: T2, BTK (Homo sapiens, UniProt Q06187); settings: estimated, abridged dose response curve, read-out: Kinase inhibitory activity EC50
T2 construct: purchased Invitrogen (SelectScreen)
Method in brief: as §1

[3] = molecular target: T3, CHEK1 (CHK1) (Homo sapiens, UniProt O14757); settings: estimated, abridged dose response curve, read-out: Kinase inhibitory activity EC50
T3 construct: purchased Invitrogen, Inc. (SelectScreen platform)
Method in brief: as §1

[4] = molecular target: T4, EPHA4 (Homo sapiens, UniProt P54764); settings: estimated, abridged dose response curve, read-out: Kinase inhibitory activity EC50
T4 construct: purchased Invitrogen (SelectScreen service)
Method in brief: as §1

[5] = molecular target: T5, FER (Homo sapiens, UniProt P16591); settings: estimated, abridged dose response curve, read-out: Kinase inhibitory activity EC50
T5 construct: purchased Invitrogen (SelectScreen service)
Method in brief: as §1

[6] = molecular target: T6, FGFR3 (Homo sapiens, UniProt P22607); settings: estimated, abridged dose response curve, read-out: Kinase inhibitory activity EC50
T6 construct: purchased Invitrogen (SelectScreen platform)
Method in brief: as §1

[7] = molecular target: T7, FLT4 (VEGFR3) (Homo sapiens, UniProt P35916); settings: estimated, abridged dose response curve, read-out: Kinase inhibitory activity EC50
T7 construct: purchased Invitrogen, Inc. (SelectScreen platform)
Method in brief: as §1

[8] = molecular target: T8, GSK3B (GSK3 beta) (Homo sapiens, UniProt P49841); settings: estimated, abridged dose response curve, read-out: Kinase inhibitory activity EC50
T8 construct: purchased Invitrogen (SelectScreen platform)
Method in brief: as §1

[9] = molecular target: T9, HCK (Homo sapiens, UniProt P08631); settings: estimated, abridged dose response curve, read-out: Kinase inhibitory activity EC50
T9 construct: purchased Invitrogen (SelectScreen)
Method in brief: as §1

[10] = molecular target: T10, IRAK4 (Homo sapiens, UniProt Q9NWZ3); settings: estimated, abridged dose response curve, read-out: Kinase inhibitory activity EC50
T10 construct: purchased Invitrogen, Inc. (SelectScreen platform)
Method in brief: as §1

[11] = molecular target: T11, JAK1 (Homo sapiens, UniProt P23458); settings: estimated, abridged dose response curve, read-out: Kinase inhibitory activity EC50
T11 construct: purchased Invitrogen (SelectScreen platform)
Method in brief: as §1

[12] = molecular target: T12, JAK2 JH1 JH2 V617F (Homo sapiens, UniProt O60674, V617F); settings: estimated, abridged dose response curve, read-out: Kinase inhibitory activity EC50
T12 construct: JAK2 JH1 JH2 V617F; purchased Invitrogen (SelectScreen platform)
Method in brief: as §1

[13] = molecular target: T13, MAP2K1 (MEK1) (Homo sapiens, UniProt Q02750); settings: estimated, abridged dose response curve, read-out: Kinase inhibitory activity EC50
T13 construct: purchased Invitrogen (SelectScreen platform)
Method in brief: as §1

[14] = molecular target: T14, MET M1250T (Homo sapiens, UniProt P08581, M1250T); settings: estimated, abridged dose response curve, read-out: Kinase inhibitory activity EC50
T14 construct: purchased Invitrogen (SelectScreen platform)
Method in brief: as §1

[15] = molecular target: T15, NEK6 (Homo sapiens, UniProt Q9HC98); settings: estimated, abridged dose response curve, read-out: Kinase inhibitory activity EC50
T15 construct: purchased Invitrogen, Inc. (SelectScreen service)
Method in brief: as §1

[16] = molecular target: T16, NTRK3 (TRKC) (Homo sapiens, UniProt Q16288)
T16 construct: purchased Invitrogen, Inc. (SelectScreen platform)
Method in brief: as §1

[17] = molecular target: T17, PAK3 (Homo sapiens, UniProt O75914); settings: estimated, abridged dose response curve, read-out: Kinase inhibitory activity EC50
T17 construct: purchased Invitrogen (SelectScreen platform)
Method in brief: as §1

[18] = molecular target: T18, PDGFRA V561D (Homo sapiens, UniProt P16234, V561D); settings: estimated, abridged dose response curve, read-out: Kinase inhibitory activity EC50
T18 construct: purchased Invitrogen (SelectScreen platform)
Method in brief: as §1

[19] = molecular target: T19, PHKG1 (Homo sapiens, UniProt Q16816); settings: estimated, abridged dose response curve, read-out: Kinase inhibitory activity EC50
T19 construct: purchased Invitrogen, Inc. (SelectScreen platform)
Method in brief: as §1

[20] = molecular target: T20, PIM1 (Homo sapiens, UniProt P11309); settings: estimated, abridged dose response curve, read-out: Kinase inhibitory activity EC50
T20 construct: purchased Invitrogen, Inc. (SelectScreen platform)
Method in brief: as §1

[21] = molecular target: T21, PRKCA (PKC alpha) (Homo sapiens, UniProt P17252); settings: estimated, abridged dose response curve, read-out: Kinase inhibitory activity EC50
T21 construct: purchased Invitrogen (SelectScreen platform)
Method in brief: as §1

[22] = molecular target: T22, PRKG2 (PKG2) (Homo sapiens, UniProt Q13237); settings: estimated, abridged dose response curve, read-out: Kinase inhibitory activity EC50
T22 construct: purchased Invitrogen, Inc. (SelectScreen platform)
Method in brief: as §1

[23] = molecular target: T23, ROCK2 (Homo sapiens, UniProt O75116); settings: estimated, abridged dose response curve, read-out: Kinase inhibitory activity EC50
T23 construct: purchased Invitrogen (SelectScreen platform)
Method in brief: as §1

[24] = molecular target: RPS6KB1 (p70S6K) (Homo sapiens, UniProt P23443); settings: estimated, abridged dose response curve, read-out: Kinase inhibitory activity EC50
Method in brief: as §1

[25] = molecular target: T24, SRC N1 (Homo sapiens, UniProt P12931); settings: estimated, abridged dose response curve, read-out: Kinase inhibitory activity EC50
T24 construct: purchased Invitrogen (SelectScreen)
Method in brief: as §1

[26] = molecular target: T25, SRPK1 (Homo sapiens, UniProt Q96SB4); settings: estimated, abridged dose response curve, read-out: Kinase inhibitory activity EC50
T25 construct: purchased Invitrogen, Inc. (SelectScreen service)
Method in brief: as §1

[27] = molecular target: T26, SRPK2 (Homo sapiens, UniProt P78362); settings: estimated, abridged dose response curve, read-out: Kinase inhibitory activity EC50
T26 construct: purchased Invitrogen, Inc. (SelectScreen service)
Method in brief: as §1

T13 sequence (Q02750 whole entry): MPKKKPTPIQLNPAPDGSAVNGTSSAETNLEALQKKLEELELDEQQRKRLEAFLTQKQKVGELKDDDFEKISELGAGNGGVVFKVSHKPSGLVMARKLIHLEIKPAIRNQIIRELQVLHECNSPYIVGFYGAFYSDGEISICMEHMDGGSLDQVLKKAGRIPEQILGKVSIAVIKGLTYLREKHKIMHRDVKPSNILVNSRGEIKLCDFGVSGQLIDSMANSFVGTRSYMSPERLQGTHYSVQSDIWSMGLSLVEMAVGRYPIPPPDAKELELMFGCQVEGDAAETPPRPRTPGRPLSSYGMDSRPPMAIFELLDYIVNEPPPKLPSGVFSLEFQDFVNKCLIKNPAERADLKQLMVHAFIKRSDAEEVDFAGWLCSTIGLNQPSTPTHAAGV
T26 sequence (P78362 whole entry): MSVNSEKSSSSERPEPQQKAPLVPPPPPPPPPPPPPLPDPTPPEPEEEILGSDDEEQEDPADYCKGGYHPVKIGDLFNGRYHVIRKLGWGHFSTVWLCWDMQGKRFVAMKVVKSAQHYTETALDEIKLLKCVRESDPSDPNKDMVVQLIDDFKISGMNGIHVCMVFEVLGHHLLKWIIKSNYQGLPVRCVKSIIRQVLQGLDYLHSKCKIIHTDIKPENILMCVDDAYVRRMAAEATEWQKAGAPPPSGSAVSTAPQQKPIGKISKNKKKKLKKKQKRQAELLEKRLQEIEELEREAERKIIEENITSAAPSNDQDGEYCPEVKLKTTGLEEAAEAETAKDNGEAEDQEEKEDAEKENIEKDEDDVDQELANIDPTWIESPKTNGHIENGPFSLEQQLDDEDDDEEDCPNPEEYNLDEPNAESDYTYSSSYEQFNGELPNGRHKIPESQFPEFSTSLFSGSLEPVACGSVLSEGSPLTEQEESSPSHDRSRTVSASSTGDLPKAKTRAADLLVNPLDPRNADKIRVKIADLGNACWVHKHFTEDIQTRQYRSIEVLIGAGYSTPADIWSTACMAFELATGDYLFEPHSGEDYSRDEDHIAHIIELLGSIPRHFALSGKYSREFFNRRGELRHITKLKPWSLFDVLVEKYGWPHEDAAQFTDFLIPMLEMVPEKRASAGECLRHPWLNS
T14 sequence (P08581 25-1390 M1250T): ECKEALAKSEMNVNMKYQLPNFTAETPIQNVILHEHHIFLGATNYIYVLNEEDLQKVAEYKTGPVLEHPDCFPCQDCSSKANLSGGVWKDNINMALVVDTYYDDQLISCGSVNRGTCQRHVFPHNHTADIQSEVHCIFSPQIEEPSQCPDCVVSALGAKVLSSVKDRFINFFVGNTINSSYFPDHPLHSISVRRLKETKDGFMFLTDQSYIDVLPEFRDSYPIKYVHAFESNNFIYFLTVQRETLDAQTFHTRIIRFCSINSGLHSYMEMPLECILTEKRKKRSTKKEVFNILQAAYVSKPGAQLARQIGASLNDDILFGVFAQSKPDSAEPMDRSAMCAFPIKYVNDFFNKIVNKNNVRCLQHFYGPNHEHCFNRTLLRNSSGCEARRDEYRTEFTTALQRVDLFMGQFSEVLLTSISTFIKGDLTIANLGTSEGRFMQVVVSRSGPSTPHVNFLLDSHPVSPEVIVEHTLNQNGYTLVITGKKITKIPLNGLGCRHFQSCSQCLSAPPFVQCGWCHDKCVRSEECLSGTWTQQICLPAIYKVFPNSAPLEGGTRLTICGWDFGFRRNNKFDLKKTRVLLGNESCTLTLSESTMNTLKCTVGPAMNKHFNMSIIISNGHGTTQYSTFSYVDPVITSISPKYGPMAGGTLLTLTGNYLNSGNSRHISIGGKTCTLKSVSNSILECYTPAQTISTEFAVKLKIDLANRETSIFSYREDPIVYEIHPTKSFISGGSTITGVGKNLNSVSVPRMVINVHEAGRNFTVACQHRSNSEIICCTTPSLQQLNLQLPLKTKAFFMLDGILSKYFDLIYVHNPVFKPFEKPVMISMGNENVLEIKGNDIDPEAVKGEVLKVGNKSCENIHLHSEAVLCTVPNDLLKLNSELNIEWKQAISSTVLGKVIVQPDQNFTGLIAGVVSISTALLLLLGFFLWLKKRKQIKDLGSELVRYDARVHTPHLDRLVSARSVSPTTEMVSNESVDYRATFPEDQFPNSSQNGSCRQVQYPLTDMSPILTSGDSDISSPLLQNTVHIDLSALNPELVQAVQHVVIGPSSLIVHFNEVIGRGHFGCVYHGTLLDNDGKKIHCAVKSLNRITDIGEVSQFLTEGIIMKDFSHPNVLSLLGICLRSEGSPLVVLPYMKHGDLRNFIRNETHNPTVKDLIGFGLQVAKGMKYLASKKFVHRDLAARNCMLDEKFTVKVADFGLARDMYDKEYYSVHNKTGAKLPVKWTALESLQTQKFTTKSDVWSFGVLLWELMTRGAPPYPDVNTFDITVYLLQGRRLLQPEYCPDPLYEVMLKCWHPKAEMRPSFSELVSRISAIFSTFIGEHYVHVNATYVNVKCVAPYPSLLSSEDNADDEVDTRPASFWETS
T8 sequence (P49841 whole entry): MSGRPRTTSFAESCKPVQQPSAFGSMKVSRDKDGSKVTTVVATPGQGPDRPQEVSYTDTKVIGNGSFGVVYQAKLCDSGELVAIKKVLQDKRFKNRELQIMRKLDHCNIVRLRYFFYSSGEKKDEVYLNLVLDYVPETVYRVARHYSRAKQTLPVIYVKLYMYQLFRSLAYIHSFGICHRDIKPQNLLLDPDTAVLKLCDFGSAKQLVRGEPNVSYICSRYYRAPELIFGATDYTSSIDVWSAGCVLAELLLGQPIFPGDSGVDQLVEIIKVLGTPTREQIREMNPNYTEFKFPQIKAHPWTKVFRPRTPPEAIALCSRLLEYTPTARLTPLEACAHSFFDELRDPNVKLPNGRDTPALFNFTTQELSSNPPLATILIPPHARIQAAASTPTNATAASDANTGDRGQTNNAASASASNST
T1 sequence (P51451 whole entry): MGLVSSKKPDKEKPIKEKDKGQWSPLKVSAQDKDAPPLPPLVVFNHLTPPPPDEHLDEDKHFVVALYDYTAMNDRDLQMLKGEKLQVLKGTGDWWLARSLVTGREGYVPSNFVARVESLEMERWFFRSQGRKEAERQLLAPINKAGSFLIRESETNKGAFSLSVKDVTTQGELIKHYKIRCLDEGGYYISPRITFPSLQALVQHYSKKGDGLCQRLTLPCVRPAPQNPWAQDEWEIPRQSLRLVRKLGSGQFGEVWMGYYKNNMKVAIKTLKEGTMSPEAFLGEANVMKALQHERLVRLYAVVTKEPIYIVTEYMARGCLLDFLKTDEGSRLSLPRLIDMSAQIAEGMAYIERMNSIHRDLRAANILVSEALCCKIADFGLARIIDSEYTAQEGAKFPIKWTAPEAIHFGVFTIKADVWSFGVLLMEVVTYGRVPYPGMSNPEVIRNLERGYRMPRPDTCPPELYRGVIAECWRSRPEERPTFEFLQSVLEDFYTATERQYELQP
T4 sequence (P54764 20-986): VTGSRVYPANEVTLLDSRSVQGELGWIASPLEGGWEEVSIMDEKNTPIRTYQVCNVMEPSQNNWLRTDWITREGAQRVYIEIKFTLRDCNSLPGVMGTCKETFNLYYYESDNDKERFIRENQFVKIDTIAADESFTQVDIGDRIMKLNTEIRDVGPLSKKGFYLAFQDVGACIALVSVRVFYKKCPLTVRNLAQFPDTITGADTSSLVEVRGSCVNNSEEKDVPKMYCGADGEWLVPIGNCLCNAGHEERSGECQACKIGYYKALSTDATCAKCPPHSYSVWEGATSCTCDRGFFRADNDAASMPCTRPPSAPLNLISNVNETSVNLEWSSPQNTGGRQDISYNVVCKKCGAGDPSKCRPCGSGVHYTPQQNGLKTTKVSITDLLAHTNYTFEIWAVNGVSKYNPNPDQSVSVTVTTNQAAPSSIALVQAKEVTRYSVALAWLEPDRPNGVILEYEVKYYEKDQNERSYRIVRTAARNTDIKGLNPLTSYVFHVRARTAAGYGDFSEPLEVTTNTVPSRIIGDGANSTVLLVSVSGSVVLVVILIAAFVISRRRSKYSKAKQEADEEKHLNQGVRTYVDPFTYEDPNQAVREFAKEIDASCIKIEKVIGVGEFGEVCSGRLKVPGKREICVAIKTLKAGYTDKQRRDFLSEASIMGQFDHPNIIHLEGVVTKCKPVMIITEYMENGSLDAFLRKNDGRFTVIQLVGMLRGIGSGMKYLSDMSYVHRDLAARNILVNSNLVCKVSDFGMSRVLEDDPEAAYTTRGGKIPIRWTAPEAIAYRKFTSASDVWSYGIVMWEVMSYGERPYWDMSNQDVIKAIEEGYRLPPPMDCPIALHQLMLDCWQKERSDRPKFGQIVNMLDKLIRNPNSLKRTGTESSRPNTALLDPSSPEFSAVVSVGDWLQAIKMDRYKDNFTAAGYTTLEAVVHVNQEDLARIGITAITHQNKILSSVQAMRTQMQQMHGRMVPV

SMILES | EC50 [1] [µM] | EC50 [2] [µM] | EC50 [3] [µM] | EC50 [4] [µM] | EC50 [5] [µM] | EC50 [6] [µM] | EC50 [7] [µM] | EC50 [8] [µM] | EC50 [9] [µM] | EC50 [10] [µM] | EC50 [11] [µM] | EC50 [12] [µM] | EC50 [13] [µM] | EC50 [14] [µM] | EC50 [15] [µM] | EC50 [17] [µM] | EC50 [18] [µM] | EC50 [19] [µM] | EC50 [20] [µM] | EC50 [21] [µM] | other results
CN(C)CCCNc1ccc2ncn3c4ccc5[nH]ncc5c4c(=O)c1c23 [Compound (IV)] | 0.481 | 1.44 | > 5 | > 5 | > 5 | 3.21 | 1.49 | > 5 | 2.28 | 3.32 | > 5 | > 5 | > 5 | > 5 | > 5 | > 5 | 0.06 | 1.01 | 3.42 | > 5 | EC50 ([16]; NTRK3 (TRKC), estimated, abridged dose response curve, read-out: Kinase inhibitory activity EC50): 0.24 µM; EC50 [22]: 1.91 µM; EC50 [23]: 0.963 µM; EC50 [24]: 2.37 µM; EC50 [25]: 0.511 µM; EC50 [26]: > 5 µM; EC50 [27]: > 5 µM
CCN(CC)CCNc1ccc2ncn3c4ccc(O)cc4c(=O)c1c23 [Symadex, 5-(2-(diethylamino)ethylamino)-8-hydroxy-6H-imidazo[4,5,1-de]acridin-6-one, reference compound] | 0.22 | 3.02 | > 5 | > 5 | > 5 | > 5 | 3.96 | > 5 | 3.98 | 0.847 | > 5 | > 5 | > 5 | > 5 | > 5 | > 5 | 0.083 | 2.2 | 0.959 | > 5 | EC50 [16]: 3.72 µM; EC50 [22]: 2.85 µM; EC50 [23]: > 5 µM; EC50 [24]: > 5 µM; EC50 [25]: 3.15 µM; EC50 [26]: > 5 µM; EC50 [27]: > 5 µM
